Literature values, collected in patent US20090275559A1, “Chronotherapeutic formulations of modified-release calcium channel blocker anti-hypertensive drugs in combination with other anti-hypertensive drugs for 24-hour optimal treatment of hypertension, nocturnal hypertension, and/or hypertension with angina” (Blue Note Pharmaceuticals, Inc., priority 2008, published 2009).

What was measured:
[1] = extensive first-pass metabolism in the liver
[2] = low pHs (0.1 N HCl)

For COc1ccc([C@@H]2Sc3ccccc3N(CCN(C)C)C(=O)[C@@H]2OC(C)=O)cc1 [diltiazem], the plasma half-life [1] is given as 2 to 6 h.
In the case of CCCCC1=NC2(CCCC2)C(=O)N1Cc1ccc(-c2ccccc2-c2nnn[nH]2)cc1 [Irbesartan], the water solubility [2] is given as “low”.
